Reference: the NIST ThermoML archive (doi:10.1021/je700152c)

Assay: molar heat capacity at saturation pressure

CCCCn1cc[n+](C)c1.Cc1ccc(S(=O)(=O)[O-])cc1 [1-butyl-3-methylimidazolium tosylate]
Settings | molar heat capacity [J/K/mol]
5.19 K, Crystal 2 | 2.822
5.39 K, Crystal 2 | 3.132
5.69 K, Crystal 2 | 3.579
5.99 K, Crystal 2 | 4.042
6.33 K, Crystal 2 | 4.588
6.71 K, Crystal 2 | 5.224
7.1 K, Crystal 2 | 5.913
7.49 K, Crystal 2 | 6.618
7.88 K, Crystal 2 | 7.372
8.27 K, Crystal 2 | 8.155
8.67 K, Crystal 2 | 8.98
9.06 K, Crystal 2 | 9.831
9.46 K, Crystal 2 | 10.7
9.86 K, Crystal 2 | 11.58
10.37 K, Crystal 2 | 12.77
10.99 K, Crystal 2 | 14.2
11.62 K, Crystal 2 | 15.75
12.24 K, Crystal 2 | 17.23
12.87 K, Crystal 2 | 18.81
13.5 K, Crystal 2 | 20.4
14.13 K, Crystal 2 | 22.01
14.77 K, Crystal 2 | 23.69
15.52 K, Crystal 2 | 25.71
16.38 K, Crystal 2 | 28.11
17.25 K, Crystal 2 | 30.43
18.11 K, Crystal 2 | 32.69
18.98 K, Crystal 2 | 34.95
19.85 K, Crystal 2 | 37.28
21.02 K, Crystal 2 | 40.42
22.47 K, Crystal 2 | 44.36
23.94 K, Crystal 2 | 48.42
25.4 K, Crystal 2 | 52.37
26.86 K, Crystal 2 | 56.28
27.91 K, Crystal 2 | 59.01
29.13 K, Crystal 2 | 62.18
30.61 K, Crystal 2 | 65.96
32.24 K, Crystal 2 | 70.12
34.04 K, Crystal 2 | 74.47
35.85 K, Crystal 2 | 78.78
37.65 K, Crystal 2 | 82.79
39.46 K, Crystal 2 | 86.82
41.36 K, Crystal 2 | 90.86
43.36 K, Crystal 2 | 95.05
45.37 K, Crystal 2 | 99.18
47.37 K, Crystal 2 | 103.21
49.38 K, Crystal 2 | 107.12
51.39 K, Crystal 2 | 110.88
53.4 K, Crystal 2 | 114.57
55.41 K, Crystal 2 | 118.11
57.43 K, Crystal 2 | 121.56
59.46 K, Crystal 2 | 124.97
61.48 K, Crystal 2 | 128.2
63.5 K, Crystal 2 | 131.49
65.48 K, Crystal 2 | 134.6
67.5 K, Crystal 2 | 137.79
69.52 K, Crystal 2 | 140.83
71.55 K, Crystal 2 | 143.85
73.58 K, Crystal 2 | 146.89
75.61 K, Crystal 2 | 149.84
77.64 K, Crystal 2 | 152.66
78.3 K, Crystal 2 | 153.84
78.41 K, Crystal 2 | 154.03
78.68 K, Metastable crystal | 155.18
79.68 K, Crystal 2 | 155.55
80.29 K, Crystal 2 | 156.42
80.4 K, Crystal 2 | 156.6
80.63 K, Crystal 2 | 156.82
80.67 K, Metastable crystal | 157.91
81.72 K, Crystal 2 | 158.34
82.14 K, Crystal 2 | 158.9
82.25 K, Crystal 2 | 158.9
82.53 K, Metastable crystal | 160.36
82.63 K, Crystal 2 | 159.37
83.76 K, Crystal 2 | 161.26
84.01 K, Crystal 2 | 161.35
84.11 K, Crystal 2 | 161.51
84.39 K, Metastable crystal | 163.15
84.49 K, Crystal 2 | 161.88
85.88 K, Crystal 2 | 163.77
85.98 K, Crystal 2 | 164.02
86.26 K, Metastable crystal | 165.85
86.36 K, Crystal 2 | 164.39
87.76 K, Crystal 2 | 166.29
87.86 K, Crystal 2 | 166.47
88.14 K, Metastable crystal | 168.4
88.24 K, Crystal 2 | 166.85
89.65 K, Crystal 2 | 168.77
89.74 K, Crystal 2 | 168.83
90.02 K, Metastable crystal | 171.1
90.12 K, Crystal 2 | 169.39
91.54 K, Crystal 2 | 171.25
91.63 K, Crystal 2 | 171.32
91.92 K, Metastable crystal | 173.77
92.02 K, Crystal 2 | 171.84
93.45 K, Crystal 2 | 173.71
93.54 K, Crystal 2 | 173.8
93.82 K, Metastable crystal | 176.53
93.92 K, Crystal 2 | 174.27
95.36 K, Crystal 2 | 176.16
95.45 K, Crystal 2 | 176.25
95.72 K, Metastable crystal | 179.17
95.83 K, Crystal 2 | 176.69
97.28 K, Crystal 2 | 178.64
97.37 K, Crystal 2 | 178.7
97.64 K, Metastable crystal | 181.78
97.75 K, Crystal 2 | 179.08
99.21 K, Crystal 2 | 181.03
99.29 K, Crystal 2 | 181.06
99.55 K, Metastable crystal | 184.48
99.67 K, Crystal 2 | 181.44
101.08 K, Crystal 2 | 183.3
101.16 K, Crystal 2 | 183.36
101.42 K, Metastable crystal | 187.02
101.54 K, Crystal 2 | 183.8
102.89 K, Crystal 2 | 185.56
102.98 K, Crystal 2 | 185.56
103.22 K, Metastable crystal | 189.6
103.36 K, Crystal 2 | 186.06
104.71 K, Crystal 2 | 187.86
104.79 K, Crystal 2 | 187.86
105.03 K, Metastable crystal | 192.05
105.18 K, Crystal 2 | 188.27
106.53 K, Crystal 2 | 190.03
106.61 K, Crystal 2 | 190.07
106.84 K, Metastable crystal | 194.54
107 K, Crystal 2 | 190.5
108.37 K, Crystal 2 | 192.21
108.44 K, Crystal 2 | 192.24
108.66 K, Metastable crystal | 197.08
108.83 K, Crystal 2 | 192.7
110.2 K, Crystal 2 | 194.41
110.27 K, Crystal 2 | 194.41
110.48 K, Metastable crystal | 199.56
110.67 K, Crystal 2 | 194.88
112.03 K, Crystal 2 | 196.58
112.1 K, Crystal 2 | 196.52
112.31 K, Metastable crystal | 201.92
112.5 K, Crystal 2 | 197.14
113.87 K, Crystal 2 | 198.73
113.94 K, Crystal 2 | 198.82
114.13 K, Metastable crystal | 204.5
114.34 K, Crystal 2 | 199.29
115.71 K, Crystal 2 | 200.99
115.78 K, Crystal 2 | 201.09
115.96 K, Metastable crystal | 207.01
116.18 K, Crystal 2 | 201.52
117.56 K, Crystal 2 | 203.23
117.62 K, Crystal 2 | 203.17
117.79 K, Metastable crystal | 209.47
118.02 K, Crystal 2 | 203.66
119.41 K, Crystal 2 | 205.4
119.46 K, Crystal 2 | 205.31
119.62 K, Metastable crystal | 212.17
119.87 K, Crystal 2 | 205.87
121.26 K, Crystal 2 | 207.48
121.3 K, Crystal 2 | 207.51
121.45 K, Metastable crystal | 214.65
121.71 K, Crystal 2 | 208.04
123.11 K, Crystal 2 | 209.71
123.16 K, Crystal 2 | 209.78
123.28 K, Metastable crystal | 217.2
123.56 K, Crystal 2 | 210.24
124.97 K, Crystal 2 | 211.95
